Data taken from article PMC5478727, “A Novel Small Molecule GDNF Receptor RET Agonist, BT13, Promotes Neurite Growth from Sensory Neurons in Vitro and Attenuates Experimental Neuropathy in the Rat” (Frontiers in Pharmacology, 2017).
“And” between values parts separate entries of the source, which are not always exact repeats. Equal values may be shown once.

Key:
[1] = target: T1, serotonin receptor 5-HT2C (Homo sapiens, UniProt P28335); assay: CEREP 5-HT2C (h) (agonist radioligand); type: binding; conditions: reference compound
T1 construct: purchased CEREP (contract assay) 0137, 1003
T1 sequence (P28335 33-458): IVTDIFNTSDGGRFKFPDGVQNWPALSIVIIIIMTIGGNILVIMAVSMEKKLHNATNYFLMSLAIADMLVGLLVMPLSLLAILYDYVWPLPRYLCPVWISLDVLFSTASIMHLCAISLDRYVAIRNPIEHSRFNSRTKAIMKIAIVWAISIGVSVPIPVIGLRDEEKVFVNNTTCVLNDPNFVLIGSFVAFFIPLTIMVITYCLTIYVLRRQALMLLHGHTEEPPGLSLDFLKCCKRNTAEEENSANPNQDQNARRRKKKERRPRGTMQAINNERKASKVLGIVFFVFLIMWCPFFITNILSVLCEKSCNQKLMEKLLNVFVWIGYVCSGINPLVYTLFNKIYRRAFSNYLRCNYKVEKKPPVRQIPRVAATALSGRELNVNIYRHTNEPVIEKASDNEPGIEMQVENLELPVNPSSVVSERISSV

[2] = test system: adult rat lumbar DRG sensory neurons; assay: Neurite outgrowth from cultured DRG neurons; type: cell-based; conditions: for effect of pre-treatment on BT13-stimulated neurite outgrowth: LY294002 50 μM; for effect of pre-treatment on BT13-stimulated neurite outgrowth / block of BT13-stimulated neurite outgrowth, maximum length, mean difference / block of BT13-stimulated neurite outgrowth, total length, mean difference: PD98059 50 μM, SU6656 2 μM; for block of BT13-stimulated neurite outgrowth, maximum length, mean difference / block of BT13-stimulated neurite outgrowth, total length, mean difference: pre-treatment with inhibitor: LY294002 50 μM
Experimental: Cultured lumbar DRG (L3–L5) neurons were prepared using a published method (O'Mullane et al., [2013]). After plating onto poly-L-ornithine (5 μg/ml)/laminin (5 μg/ml) coated coverslips for 1 h, DRG neurons were cultured for 24–30 h in fresh Neurobasal A/B27. GFLs, BT13, NGF, and vehicle control were added at the start of this period for a 24–30 h treatment, except when preceded by pre-treatment (1 h) with inhibitors (50 μM LY294002; 2 μM SU6656, […]; Biomol Research Laboratories, Plymouth Meeting, PA, USA). DRG neurons were then fixed (4% paraformaldehyde) and processed for immunocytochemistry with 1:200 Mouse anti-β III tubulin/AlexaFluor 594 (Sigma-Aldrich Cat# T8660 RRID:AB_477590) and 1:5,000 rabbit anti-calcitonin gene-related peptide/AlexaFluor 488 (Sigma-Aldrich Cat# C8198 RRID:AB_259091) and DAPI for nuclear staining (0.5 μg/ml, Molecular Probes). Image analysis of multichannel 12 bit Zeiss .ZVI or .TIF files (captured with a Zeiss Imager.M1/MRm camera/Zen software; Carl Zeiss Australia, North Ryde, NSW, Australia) was then performed by a researcher blinded to the experimental condition. Neurite initiation was measured by a single parameter (proportion of neurons with neurites longer than the soma diameter). Neurite elongation was measured by batch processing (HCA-Vision software; CSIRO Mathematical and Information Sciences, North Ryde, NSW, Australia) to obtain four parameters—Root number: number of primary neurites; Maximum length: length of longest neurite; Branch points: number of neurite branch points; and Total length: sum of neurite lengths (Kalous and Keast, [2010]; Kalous et al., [2012]). The number of neurons of each immunocytochemical class counted on each coverslip (technical replicates) was 50 for neurite initiation and 20 for neurite elongation. A minimum of three cultures from different rats (biological replicates) were analyzed for each treatment group.

[3] = target: T1, serotonin receptor 5-HT2C; assay: CEREP 5-HT2C (h) (antagonist radioligand); type: binding; conditions: reference compound
[4] = test system: rats with spinal nerve ligation (L5/L6); assay: Spinal nerve ligation (Chung's) model of experimental neuropathy, von Frey test
neurotensin receptor NT = assay: CEREP NT (non-selective; agonist radioligand); type: binding; conditions: reference compound, Cat. No. 0465
GFRα1/RET = target: T2, GFRα1/RET (Homo sapiens, UniProt P07949); design: method as in Sidorova et al., 2010; conditions: GDNF in this assay, ref Sidorova et al., 2010, cited from earlier work
T2 construct: full-length human RET (long isoform) in pCR3.1; expressed in transfected cells; host or cells: MG87 murine fibroblasts (MG87RET + PathDetect Elk-1 + GFRα1)

[5] = test system: dorsal root ganglia neurons of SNL rats; assay: Immunohistochemistry of DRG neuronal markers in rats with spinal nerve ligation; type: in vivo, rat; conditions: IHC
Description: DRGs from rats with spinal nerve ligation treated with BT13 or vehicle were embedded in paraffin and sectioned (7 μm thickness). Sections were deparaffinized, subjected to citrate or basic antigen-retrieval procedure and probed with IB4-Alexa 488 [1:200; IB4-Alexa488, Cat# IB4 (isolectin Griffonia simplicifolia IB4) RRID:AB_2314664] and antibodies against calcitonin gene-related peptide (CGRP; 1:10,000, Peninsula Laboratory, Cat# T-4032 RRID:AB_2313775), NPY (1:10,000, Peninsula Laboratory, Cat# T-4070.0050 RRID:AB_518504), pErk1/2 (1:300, Cell Signaling, Cat# 4370L RRID:AB_2297462), pS6 (1:300, Cell Signaling, Cat# 4858L RRID:AB_1031194) or RET [1:100, kind gift of Dr. E. Kramer, Center for Molecular Neurobiology, University Medical Center Hamburg-Eppendorf, Hamburg, Germany (Meka et al., [2015])] and corresponding secondary antibodies conjugated with fluorophores (Donkey Anti-Rabbit Alexa Fluor 647 conjugate, Cat# A31573 RRID:AB_162544; Donkey anti-Mouse Alexa Fluor 647 conjugate, Cat# A-31571 RRID:AB_2536181; Goat anti-Guinea Pig, Alexa Fluor 568 conjugate, Cat# A-11075 RRID:AB_2534119, Thermo Fisher Scientific, USA) or horse radish peroxidase (VECTASTAIN Elite ABC-Peroxidase Kit antibody, Vector Laboratories, CA, USA, Cat# PK-6101 RRID:AB_2336820). In the latter case, to reveal staining slides were treated with ABC and DAB staining kits (Vector Laboratories, CA, USA) according to the manufacturer's instructions. Sections were co-stained with guinea pig anti-PGP9.5 antibodies (Abcam Cat# ab10410 RRID:AB_297150) whenever possible. Nuclei were visualized using hematoxylin or DAPI dyes. Sections were mounted in Immu-Mount (Thermo Scientific, Cat#9990402) or Coverquick 2000 (Q PATH, Cat#05547530) mounting media and images were taken with fluorescent (Zeiss Imager M2 Axio, Carl Zeiss, Germany) or bright-field (Olympus BX-61, Olympus, Japan) microscopes. Neurons were counted for two sections per DRG and the number of cell profiles with nuclei positive for each specific marker was normalized to the total number of the neurons (identified by PGP9.5 staining or by morphology) per section. Ret-positive neurons were clustered by size using Matlab software R2014b (Mathworks, USA). Statistical analysis was performed using data from three to six individual animals. To obtain sufficient sample size, the data from animals treated with 20 and 25 mg/kg of BT13 were combined.

[6] = gabapentin single oral dose 100 mg/kg on day 12, 1 h before test

T2 sequence (P07949 29-1114): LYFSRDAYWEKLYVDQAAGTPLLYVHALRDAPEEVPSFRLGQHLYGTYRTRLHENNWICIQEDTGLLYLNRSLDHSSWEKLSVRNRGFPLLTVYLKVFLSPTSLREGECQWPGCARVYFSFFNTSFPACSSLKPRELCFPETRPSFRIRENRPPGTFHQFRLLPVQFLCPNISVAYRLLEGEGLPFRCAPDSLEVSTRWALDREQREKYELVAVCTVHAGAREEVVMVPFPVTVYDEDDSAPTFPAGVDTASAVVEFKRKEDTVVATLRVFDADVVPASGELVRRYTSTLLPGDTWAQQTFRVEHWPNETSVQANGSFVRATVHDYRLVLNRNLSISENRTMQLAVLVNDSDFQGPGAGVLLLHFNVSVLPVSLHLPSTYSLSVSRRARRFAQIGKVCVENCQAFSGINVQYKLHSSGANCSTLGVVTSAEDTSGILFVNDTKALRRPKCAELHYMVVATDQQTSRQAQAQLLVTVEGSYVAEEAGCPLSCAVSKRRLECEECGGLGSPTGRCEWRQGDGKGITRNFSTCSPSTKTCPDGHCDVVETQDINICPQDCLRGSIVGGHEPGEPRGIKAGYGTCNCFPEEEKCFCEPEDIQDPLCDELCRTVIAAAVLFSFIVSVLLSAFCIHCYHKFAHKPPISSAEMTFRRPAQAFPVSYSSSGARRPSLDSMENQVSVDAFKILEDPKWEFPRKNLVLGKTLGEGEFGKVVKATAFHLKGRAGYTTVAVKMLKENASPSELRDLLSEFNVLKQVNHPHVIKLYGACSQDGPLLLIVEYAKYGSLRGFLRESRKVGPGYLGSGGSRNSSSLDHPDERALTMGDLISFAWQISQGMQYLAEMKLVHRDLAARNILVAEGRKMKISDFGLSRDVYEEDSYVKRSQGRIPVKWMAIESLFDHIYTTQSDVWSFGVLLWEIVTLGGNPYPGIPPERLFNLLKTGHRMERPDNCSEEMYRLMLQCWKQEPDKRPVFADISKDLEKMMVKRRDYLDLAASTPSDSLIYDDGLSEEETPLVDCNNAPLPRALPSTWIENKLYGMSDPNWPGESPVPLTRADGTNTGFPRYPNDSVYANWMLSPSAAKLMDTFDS

COc1cc(CC(C)N)c(OC)cc1I (racemic) [(±)DOI]
IC50 ([1]; Cat. No. 1003): 0.46 nM | Ki ([1]; Cat. No. 1003, read-out: Ki Ref): 0.42 nM

O=c1cc(N2CCOCC2)oc2c(-c3ccccc3)cccc12 [LY294002, reference compound]
effect of pre-treatment on BT13-stimulated neurite outgrowth [2]: completely blocked | block of BT13-stimulated neurite outgrowth, branch points, mean difference ([2]; pre-treatment with LY294002 50 μM, BT13 100 ng/ml): 22 ± 5 | block of BT13-stimulated neurite outgrowth, maximum length, mean difference ([2]; BT13 100 ng/ml): 100.7 ± 13 μm | block of BT13-stimulated neurite outgrowth, total length, mean difference ([2]; BT13 100 ng/ml): 817 ± 207 μm

COc1cccc(-c2cc(=O)c3ccccc3o2)c1N [PD98059, reference compound]
effect of pre-treatment on BT13-stimulated neurite outgrowth [2]: completely blocked | block of BT13-stimulated neurite outgrowth, maximum length, mean difference ([2]; BT13 100 ng/ml): 78 ± 17 μm | block of BT13-stimulated neurite outgrowth, total length, mean difference ([2]; BT13 100 ng/ml): 449 ± 113 μm

COc1cc(OC)c(C(=O)CCCCN2CCC3(CC2)NC(=O)NC3=O)cc1NS(=O)(=O)c1ccc(C(F)(F)F)cc1 [RS 102221]
IC50 ([3]; Cat. No. 0137): 3 nM | Ki ([3]; Cat. No. 0137, read-out: Ki Ref): 0.99 nM

CN(C)S(=O)(=O)c1ccc2c(c1)/C(=C/c1cc3c([nH]1)CCCC3)C(=O)N2 [SU6656, reference compound]
effect of pre-treatment on BT13-stimulated neurite outgrowth [2]: completely blocked | block of BT13-stimulated neurite outgrowth, maximum length, mean difference ([2]; BT13 100 ng/ml): 116 ± 53 μm | block of BT13-stimulated neurite outgrowth, total length, mean difference ([2]; BT13 100 ng/ml): 1098 ± 343 μm

NCC1(CC(=O)O)CCCCC1 [gabapentin, reference compound]
contralateral PWT [4, 6]: 26 ± 0.0 | ipsilateral PWT [4, 6]: 24.2 ± 1.83

Neurotensin
IC50 (neurotensin receptor NT): 2.9 nM | Ki (neurotensin receptor NT; read-out: Ki Ref): 2.7 nM

B1: glial cell line-derived neurotrophic factor (protein, UniProt P39905 78-211, looked up)
Glial cell line-derived …: SPDKQMAVLPRRERNRQAAAANPENSRGKGRRGQRGKNRGCVLTAIHLNVTDLGLGYETKEELIFRYCSGSCDAAETTYDKILKNLSRNRRLVSDKVGQACCRPIAFDDDLSFLDDNLVYHILRKHSAKRCGCI
notes: GDNF family ligand protein from PeproTech
efficacy, fold induction of luciferase above baseline (GFRα1/RET): 84.9 fold and 50–100 fold | EC50 (GFRα1/RET; read-out: EC50, luciferase activation): 1.2 nM

B2: artemin (protein, UniProt Q5T4W7 108-220, looked up)
Artemin: AGGPGSRARAAGARGCRLRSQLVPVRALGLGHRSDELVRFRFCSGSCRRARSPHDLSLASLLGAGALRPPPGSRPVSQPCCRPTRYEAVSFMDVNSTWRTVDRLSATACGCLG
notes: as for B1
increase of ipsilateral paw withdrawal threshold (PWT) ([4]; ARTN 0.5 mg/kg s.c. on days 1, 3, 5, 8, 10, 12, von Frey, day 12 post-surgery): 2.6 times | reduction in the number of RET-positive cells in DRGs after SNL ([5]; day 12 after SNL): restored | number of large RET-positive neurons in lesioned DRGs ([5]; size above 1,000 μm^2, vs contralateral): increased | number of small RET-positive neurons in lesioned DRGs ([5]; size below 1,000 μm^2, vs contralateral): decreased | neurite initiation or extension ([2]; CGRP-negative neurons, NGF 10 ng/ml, ARTN 30 ng/ml, BT13 100 ng/ml): no effect | neurite elongation significantly increased ([2]; CGRP-positive neurons, ARTN 30 ng/ml): not | neurite initiation ([2]; CGRP-positive neurons, NGF 10 ng/ml, ARTN 30 ng/ml, BT13 100 ng/ml, overnight): significantly increased | proportion of DRG neurons that expressed CGRP in culture ([2]; NGF 10 ng/ml, ARTN 30 ng/ml, BT13 100 ng/ml): did not alter
